What was measured:
Type in all cases: ADME, cell-based
Cytochrome P450 4Z1 [1] = molecular target: T1, Cytochrome P450 4Z1 (Homo sapiens, UniProt Q86W10); test: Inhibition of CYP4Z1 in human HEK293T cells using Luciferin-BE as substrate at 10 uM incubated for 30 mins in presence of NADPH by luminescence based assay relative to control; details: HEK-293T, 0.5 h
T1 sequence (Q86W10 whole entry): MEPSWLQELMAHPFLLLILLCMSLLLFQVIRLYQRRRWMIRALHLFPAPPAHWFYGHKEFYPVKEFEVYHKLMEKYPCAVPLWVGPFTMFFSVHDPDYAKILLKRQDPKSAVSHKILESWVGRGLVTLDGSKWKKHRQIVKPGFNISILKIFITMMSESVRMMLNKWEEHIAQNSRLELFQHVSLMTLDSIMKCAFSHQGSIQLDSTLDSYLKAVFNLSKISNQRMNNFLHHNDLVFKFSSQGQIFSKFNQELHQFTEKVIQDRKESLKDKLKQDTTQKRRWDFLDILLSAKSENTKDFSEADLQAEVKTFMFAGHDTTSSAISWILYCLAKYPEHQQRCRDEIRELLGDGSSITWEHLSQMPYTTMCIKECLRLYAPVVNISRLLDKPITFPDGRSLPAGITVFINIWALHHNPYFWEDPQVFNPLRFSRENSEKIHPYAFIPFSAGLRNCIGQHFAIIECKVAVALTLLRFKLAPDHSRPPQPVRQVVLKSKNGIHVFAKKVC

Cytochrome P450 4Z1 [2] = molecular target: T1, Cytochrome P450 4Z1; test: Inhibition of CYP4Z1 in human HEK293T cells using Luciferin-BE as substrate at 1 uM incubated for 30 mins in presence of NADPH by luminescence based assay relative to control; details: HEK-293T, 0.5 h
Cytochrome P450 4Z1 [3] = molecular target: T1, Cytochrome P450 4Z1; test: Inhibition of CYP4Z1 in human HEK293T cells using Luciferin-BE as substrate incubated for 30 mins in presence of NADPH by luminescence based assay

inhibition at 10 µM (Cytochrome P450 4Z1 [1]): 89.1%
inhibition at 1 µM (Cytochrome P450 4Z1 [2]): 80.4%
IC50 (Cytochrome P450 4Z1 [3]): 89.7 nM
SMILES: CCOC(=O)Cc1ccc(N/C=N/O)cc1

— ChEMBL document CHEMBL5236600, “Identification of a Novel Potent CYP4Z1 Inhibitor Attenuating the Stemness of Breast Cancer Cells through Lead Optimization” (J Med Chem, 2022)
